According to patent publication US8304547B2, “Azolecarboxamide compound or salt thereof” (Astellas Pharma Inc., priority 2007, dated 2012):
Structures can show the parent of a compound that is named as a salt.

Tests used:
human trkA receptor = molecular target: T1, human trkA receptor (Homo sapiens, UniProt P04629); assay: trkA receptor inhibitory activity using a cell expressing a nerve growth factor receptor (NGF-dependent increase of calcium concentration in cells, FLIPR); format: cell-based; conditions: HEK293 cells stably expressing human trkA receptor; NGF-stimulated change in Ca concentration in cells
T1 construct: expressed in transfected cells
T1 sequence (P04629 33-796): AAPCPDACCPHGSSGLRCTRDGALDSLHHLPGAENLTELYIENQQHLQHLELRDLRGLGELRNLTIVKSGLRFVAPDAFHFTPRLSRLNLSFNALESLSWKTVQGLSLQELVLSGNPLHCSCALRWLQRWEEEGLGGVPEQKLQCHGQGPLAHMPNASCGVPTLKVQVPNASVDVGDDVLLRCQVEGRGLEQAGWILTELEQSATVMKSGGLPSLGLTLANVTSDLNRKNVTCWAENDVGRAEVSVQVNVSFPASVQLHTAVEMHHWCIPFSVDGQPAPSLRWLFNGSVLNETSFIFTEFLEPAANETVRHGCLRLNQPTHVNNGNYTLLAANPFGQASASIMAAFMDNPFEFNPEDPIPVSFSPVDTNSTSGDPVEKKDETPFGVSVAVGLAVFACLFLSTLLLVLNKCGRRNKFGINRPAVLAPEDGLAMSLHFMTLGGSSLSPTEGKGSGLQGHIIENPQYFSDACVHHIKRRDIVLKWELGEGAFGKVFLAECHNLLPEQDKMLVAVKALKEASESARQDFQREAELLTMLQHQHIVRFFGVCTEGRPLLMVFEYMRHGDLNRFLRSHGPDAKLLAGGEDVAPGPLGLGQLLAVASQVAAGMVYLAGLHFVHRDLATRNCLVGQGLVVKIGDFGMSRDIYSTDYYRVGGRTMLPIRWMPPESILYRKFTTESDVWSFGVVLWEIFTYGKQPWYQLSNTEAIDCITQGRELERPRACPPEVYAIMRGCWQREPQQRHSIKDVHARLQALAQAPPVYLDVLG
Description: Experiment to Measure trkA Receptor Inhibitory Activity Using a Cell Expressing a Nerve Growth Factor Receptor (trkA Receptor)
The trkA receptor inhibitory activity was measured by using the increase in a ligand-dependent calcium concentration in cells as an index. HEK293 cells (American Type Culture Collection) that stably expressed a human trkA receptor were dispensed onto a 96-well poly-D-lysine-coated plate (Product Name: Biocoat, PDL96W black/clear, by Nippon Becton Dickinson) to a 2×10^4 cells/well on the day before the experiment, and incubated overnight at 37° C. under 5% carbon dioxide (CO2) in a culture medium containing 10% fetal bovine serum (FBS) (Product Name: DMEM, Invitrogen Corporation). The culture medium was replaced by a loading buffer (a washing solution containing a 1.5 μM fluorescent-labelled indicator (Product Name: Fluo4-AM, Tong Ren Tang Technologies Co. Ltd.): a Hank's balanced salt solution (HBSS), 20 mM 2-[4-(2-hydroxyethyl)-1-piperazinyl]ethanesulfonic acid (HEPES)-sodium hydroxide (NaOH), 2.5 mM Probenecid, and 0.1% bovine serum albumin (BSA)), and left to stand at room temperature for 3 hours, and the cells were washed using a plate washer (Product Name: ELx405, BIO-TEK instrument Corporation) in which a washing solution had been set up. The compound that had been preliminarily dissolved and diluted in a washing solution was added thereto, and set up in a system for measuring a calcium (Ca) concentration in a cell (Product Name: FLIPR, Molecular Devices Corporation). After 5 minutes, a nerve growth factor (NGF, mouse derived 2.5S, Alomone) corresponding to 80% stimulation of a maximum response was added (to a final concentration of about 100 to 150 ng/ml) to measure the change in Ca concentrations in cells. The difference between a maximum value and a minimum value in the change of Ca concentrations in cells was determined, and kept as measurement data. With a response upon addition of NGF being set at 0%, and a response upon addition of a buffer being set at 100%, the concentration causing 50% inhibition was determined as an IC50 value. In the table, Ex represents Example Compound No. as below (the same applies hereinafter). From the results of this test, it was confirmed that the representative compounds of the present invention as below have a trkA receptor inhibitory action.

[1] = test system: enhanced vascular permeability caused by Rat NGF; assay: Inhibitory activity on enhanced vascular permeability caused by Rat NGF (Evans blue); format: in vivo; conditions: Wistar female rat, 10 mg/kg oral, NGF intracutaneously 60 minutes after administration; for inhibition in vivo at 10 mg/kg: 1 h, read-out: Inhibitory rate
Description: Evaluation of the Inhibitory Activity of the Compound on Enhanced Vascular Permeability Caused by Rat NGF
The in vivo NGF inhibitory activity of the compound was examined. A Wistar female rat (Japan SLC) was forced to be orally administered with the compound (0.5% methylcellulose solution) 10 mg/3 ml/kg or a solvent (0.5% methylcellulose solution) 3 ml/kg. Under ether anesthesia performed at 60 minutes after administration, physiological saline or 1 μg/ml NGF (NGF, mouse derived 2.5 S, Alomone) was intracutaneously administered to the back at 50 μl/site, and then immediately a 1% Evans blue solution (dissolved in physiological saline) was administered through the caudal vein at 3 ml/kg. At a time point of 10 minutes after administration, the skin on the back was taken, and shaken in formamide for 16 hours. After shaking, an absorbance of Evans blue extracted in formamide was measured by an absorbance meter (wavelength: 620 nm), and the concentration was determined by a calibration curve method. A value obtained by subtracting the concentration of Evans blue at a site administered with physiological saline from the concentration of Evans blue at a site administered with NGF was determined as an NGF-dependent action, and an inhibitory rate of the compound group was determined with a group administered with a solvent being set at 100%. In this test, it was confirmed that the representative compounds as below of the present invention have an excellent inhibitory action on enhanced vascular permeability caused by Rat NGF.

[2] = test system: rat having urinary frequency caused by cyclophosphamide (CPA); assay: Action on a rat having urinary frequency caused by cyclophosphamide (CPA); format: in vivo; conditions: CPA-treated Wistar female rat, value before administration = 100%
Description: Action of the Compound on a Rat Having Urinary Frequency Caused by Cyclophosphamide (CPA)
CPA (150 mg/5 ml/kg) was intraperitoneally administered to a Wistar female rat (Charles River Laboratories), and after 2 days, the experiment was carried out. It was forced to be orally administered with distilled water (30 ml/kg), and then confined in a metabolic cage, and urine weight and urination frequency were continuously measured for 1 hour. 3 or 10 mg/5 ml/kg of the compound (0.5% methylcellulose solution), or 5 ml/kg of a solvent (0.5% methylcellulose solution) was orally administered, and after 5 to 30 minutes, urination functions were measured after water-loading in the same manner as described above. A total urine weight was divided by the total urination frequency to determine an effective bladder capacity. With the value before administration of the compound being set at 100%, a rate of change in the effective bladder capacity caused by administration of the compound was determined.
In this test, at 2 days after CPA treatment, the effective bladder capacity had decreased (about 0.5 ml), indicating urinary frequency.

[3] = oral dose 10 mg/kg, evaluation period 5-65 minutes after administration
[4] = oral dose 10 mg/kg, evaluation period 15-75 minutes after administration

Row | SMILES | IC50 (human trkA receptor) [nM] | inhibition in vivo at 10 mg/kg [1] [%] | also measured
1 | O=C(Nc1ccc(CO)cc1Cl)c1csc(N2CCC(Oc3ncccn3)CC2)n1 [Ex 3] | 5.4 | – | –
2 | O=C(Nc1ccccc1C(=O)Nc1cccnc1)c1coc(N2CCOCC2)n1 [Ex 11] | 6.9 | 69 | –
3 | CCOC1CCN(c2nc(C(=O)Nc3ccccc3C(=O)NC3CCOCC3)cs2)CC1 [Ex 28] | 27 | 92 | –
4 | CN(CC1CCOCC1)c1nc(C(=O)Nc2ccccc2C(=O)Nc2cccnc2)cs1 [Ex 30] | 0.57 | 90 | –
5 | COCCN(C)c1nc(C(=O)Nc2ccccc2C(=O)Nc2cccnc2)cs1 [Example 103] | 2.9 | 98 | Rate in cange of effective bladder capacity ([2]; oral dose 3 mg/kg, evaluation period 5-65 minutes after administration): 145%
6 | CO[C@H]1CCN(c2nc(C(=O)Nc3ccccc3C(=O)Nc3cccnc3)co2)C1 [Example 206] | 6.8 | – | Rate in cange of effective bladder capacity [2, 3]: 159%
7 | Nc1cc(-c2nc(C(=O)Nc3ccccc3C(=O)Nc3cccnc3)co2)ccn1 [Example 220] | 4.2 | – | –
8 | COCCN(C)c1nc(C(=O)Nc2ccccc2C(=O)NC2CCOCC2)co1 [Example 361] | 35 | 78 | Rate in cange of effective bladder capacity [2, 3]: 144%
9 | COCCNC(=O)c1cc(CN2CCOCC2)ccc1NC(=O)c1csc(N2CCC(Oc3ncccn3)CC2)n1 [Example 564] | 3.1 | – | Inhibitory rate [1]: 90%; Rate in cange of effective bladder capacity [2, 4]: 146%
10 | O=C(Nc1ccncc1C(=O)NC1CCOCC1)c1csc(N2CCC(Oc3ncccn3)CC2)n1 [Example 602] | 1.1 | – | Rate in cange of effective bladder capacity [2, 4]: 152%
11 | O=C(Nc1ccccc1S(=O)(=O)C(F)F)c1csc(N2CCC(Oc3ncccn3)CC2)n1 [Example 611] | 2.1 | – | –
12 | CC(=O)c1cc(C2(C#N)CC2)ccc1NC(=O)c1csc(N2CCC(Oc3ncccn3)CC2)n1 [Example 628] | 1.7 | – | –
13 | CN(CC1CCOCC1)c1nc(C(=O)Nc2ccc(CN3CCOCC3)cc2C(=O)NC2CCOCC2)cs1 [Example 930] | 6.8 | – | Inhibitory rate [1]: 86%; Rate in cange of effective bladder capacity [2, 4]: 170%
14 | COCCNC(=O)c1cc(CN2CCO[C@@H](C)C2)ccc1NC(=O)c1csc(N2CC[C@H](OC)C2)n1 [Example 1181, N-(2-[(2-methoxyethyl)carbamoyl]-4-{[(2S)-2-methylmorpholin-4-yl]methyl}phenyl)-2-[(3S)-3-methoxypyrrolidin-1-yl]-1,3-thiazole-4-carboxamide fumarate] | 12 | 81 | –
15 | COCCNC(=O)c1cc(CN2CCOCC2(C)C)ccc1NC(=O)c1csc(N2CC[C@H](OC)C2)n1 [Example 1343] | 9.9 | 87 | –
16 | COCCNC(=O)c1cc(CN2CCOCC2)ccc1NC(=O)c1csc(N2CC(OC)C2)n1 [Example 1435] | 36 | 71 | –
17 | COC[C@@H](C)NC(=O)c1cc(CN2CCOCC2)ccc1NC(=O)c1csc(N2CC(OC)C2)n1 [Example 1439] | 25 | 76 | –
18 | CCOCc1ccc(NC(=O)c2csc(N3CC[C@H](OC)C3)n2)c(C(=O)NCCOC)c1 [Example 1449] | 8.8 | 76 | –
19 | COCCNC(=O)c1cc(CN2CCOCC2)ccc1NC(=O)c1csc(N(C)CCOC)n1 [Example 1469] | 9.8 | 90 | –
20 | COCCNC(=O)c1cc(CN2CCOCC2)ccc1NC(=O)c1csc(N2CC[C@H](F)C2)n1 [Example 1470] | 18 | 76 | –
